Assay results from patent publication US20250066864A1, “METHODS FOR IDENTIFYING ADAR1 INHIBITORS, AND COMPOSITIONS AND METHODS OF USE IN TREATING CANCER” (The Wistar Institute of Anatomy and Biology, priority 2021, published 2025).
Entries after “also recorded” stand apart in the source; their conditions may differ. Like-named read-outs stand apart in the source and are kept apart here.

Key:
[1] = test system: IMR90 normal fibroblast cells; experiment: Apo Tox-Glo viability assay, IMR90 normal fibroblast cells; format: cell-based; conditions: 5 μM, 3 days
Protocol: (§1) HeLa, U2OS, and MRI90 cells were cultured in the presence of ADAR1 inhibitors, 5 μM or 20 μM, for 3 days. Their viability was examined using the Apo Tox-Glo assay system (Promega), which measures plasma membrane penetration of glycyl-phenyl-alanyl-aminofluorocoumarin peptide. Control, 0.3% DMSO. […] Data are mean±S.D. (n=3, biological replicates).
(§2) FIGS. 29A-29D Characterization of Compound #13 effects in cancer cells. […] Viability was examined using the Apo Tox-Glo assay system (Promega). Control, 0.3% DMSO. (FIG. 29B) Western blotting analysis of HeLa cells treated with Compound #13 (10 μM). […] (FIG. 29D) Activation of the IFN signaling pathway. HSC-4 squamous carcinoma cells were treated with Compound #13 at 10 μM (12 hrs). RNA samples were analyzed by qRT-PCR to monitor expression levels of ISGs.

ADAR1p110 = molecular target: T1, ADAR1p110 (Homo sapiens, UniProt P55265); experiment: in vitro editing assay with recombinant ADAR1p110 and dsRNA or DNA:RNA substrates; format: biochemical; conditions: for inhibitory potency of ADAR1 p110 editing activity (SAR analogs): data not shown
T1 construct: HAT (N); FLAG (alternative preparation, not on the same molecule as HAT) (N); made in house; host or cells: Sf9 insect cells, baculovirus
T1 sequence (P55265 1-931 isoform P55265-5): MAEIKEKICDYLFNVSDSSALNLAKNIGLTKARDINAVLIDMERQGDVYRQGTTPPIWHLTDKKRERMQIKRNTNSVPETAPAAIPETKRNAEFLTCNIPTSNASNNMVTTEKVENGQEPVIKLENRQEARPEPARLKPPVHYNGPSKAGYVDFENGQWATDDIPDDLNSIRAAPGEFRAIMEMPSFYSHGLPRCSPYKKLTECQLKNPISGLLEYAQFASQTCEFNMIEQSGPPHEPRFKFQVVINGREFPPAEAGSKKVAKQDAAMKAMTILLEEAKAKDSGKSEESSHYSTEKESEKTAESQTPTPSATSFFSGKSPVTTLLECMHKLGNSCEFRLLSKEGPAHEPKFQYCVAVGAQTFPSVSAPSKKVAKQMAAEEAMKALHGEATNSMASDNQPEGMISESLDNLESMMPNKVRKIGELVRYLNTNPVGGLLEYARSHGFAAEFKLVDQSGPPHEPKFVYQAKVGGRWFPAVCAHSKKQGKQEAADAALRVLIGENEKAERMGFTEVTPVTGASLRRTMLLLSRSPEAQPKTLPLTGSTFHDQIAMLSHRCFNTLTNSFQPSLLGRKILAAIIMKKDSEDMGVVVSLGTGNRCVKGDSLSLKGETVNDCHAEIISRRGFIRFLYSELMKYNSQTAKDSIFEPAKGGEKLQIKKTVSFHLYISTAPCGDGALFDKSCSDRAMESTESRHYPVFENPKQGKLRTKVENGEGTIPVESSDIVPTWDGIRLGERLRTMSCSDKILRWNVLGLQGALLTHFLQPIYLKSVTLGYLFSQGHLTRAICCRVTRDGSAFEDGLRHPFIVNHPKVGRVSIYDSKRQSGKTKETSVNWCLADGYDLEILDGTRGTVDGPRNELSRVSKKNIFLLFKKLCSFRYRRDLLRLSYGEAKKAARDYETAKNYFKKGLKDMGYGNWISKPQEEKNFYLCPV
Protocol: FIG. 26A-FIG. 26B show determination of IC50 by in vitro editing assay. In vitro editing assay using purified ADAR1p110 protein and two different substrates, matched (left) and mismatched (right) dsRNAs, was conducted in the presence of varying concentrations of compound #1 (FIG. 26A) or #13 (FIG. 26B) in order to estimate IC50 values for these compounds. In vitro editing was carried out using HAT-ADAR1p110 or HAT-ADAR2 recombinant protein (10 nM) and two different dsRNA substrates carrying a part of the CDK13 gene sequence (5 nM) at 37° C. for 2 hrs as described previously (12). Compounds were dissolved in 100% DMSO. The in vitro assay contained DMSO at final concentration of 16%.
The in vitro editing reaction mixture, containing 5 nM of telomere RNA:RNA duplex substrates and 75 nM of HAT-ADAR1p110-WT, FLAG-ADAR1p110-WT, or HA-ADAR1p110-EAA protein, was incubated at 37° C. for 2 h in in vitro editing buffer I (20 mM HEPES-KOH pH 7.5, 100 mM NaCl, 0.01% NP-40, 5% glycerol, 1 mM DTT). For editing of RNA:DNA hybrid substrates, in vitro editing buffer II (20 mM HEPES-KOH pH 7.5, 20 mM NaCl, 0.01% NP-40, 5% glycerol, 1 mM DTT) was used. Edited RNA or DNA strands were purified using Dynabeads MyOne Streptavidin C1 (Thermo Fisher Scientific). To remove opposite RNA or DNA strands, rNase H (NEB) or TURBO dNase (Thermo Fisher Scientific) was used, respectively. For sequencing of edited substrates, reverse transcription-PCR was carried out for RNA strands, while PCR was carried out for DNA strands. RT reactions were carried out using SuperScript III Reverse Transcriptase (Thermo Fisher Scientific), and PCR reactions were performed using Platinum Taq DNA polymerase (Thermo Fisher Scientific). PCR products were sequenced using a specific sequencing primer, and the ratio of A and G peaks in the chromatograms were analyzed by CodonCode Aligner (CodonCode Corporation).
The 54 compounds identified in the high-throughput screen were further tested in the in vitro editing assay described in Examples 1 and 2. The in vitro editing reaction mixture, containing 5 nM of telomere RNA:RNA duplex substrates and 75 nM of HAT-ADAR1p110-WT, FLAG-ADAR1p110-WT, or HA-ADAR1p110-EAA protein, was incubated at 37° C. for 2 h in in vitro editing buffer I (20 mM HEPES-KOH pH 7.5, 100 mM NaCl, 0.01% NP-40, 5% glycerol, 1 mM DTT) with 10 microM test compound. For editing of RNA:DNA hybrid substrates, in vitro editing buffer II (20 mM HEPES-KOH pH 7.5, 20 mM NaCl, 0.01% NP-40, 5% glycerol, 1 mM DTT) was used. Edited RNA or DNA strands were purified using Dynabeads MyOne Streptavidin C1 (Thermo Fisher Scientific). To remove opposite RNA or DNA strands, Rnase H (NEB) or TuRBO Dnase (Thermo Fisher Scientific) was used, respectively. For sequencing of edited substrates, reverse transcription-PCR was carried out for RNA strands, while PCR was carried out for DNA strands. RT reactions were carried out using SuperScript III Reverse Transcriptase (Thermo Fisher Scientific), and PCR reactions were performed using Platinum Taq DNA polymerase (Thermo Fisher Scientific). PCR products were sequenced using a specific sequencing primer, and the ratio of A and G peaks in the chromatograms were analyzed by CodonCode Aligner (CodonCode Corporation).

HeLa cells = experiment: Apo Tox-Glo viability assay, HeLa cells; format: cell-based, human; conditions: 5 μM, 3 days
Protocol: as §1, §2

U2OS cells = experiment: Apo Tox-Glo viability assay, U2OS cells; format: cell-based, human; conditions: 5 μM, 3 days
Protocol: as §1, §2

[2] = matched dsRNA substrate, read-out: IC50 estimated by in vitro editing assay, RNA:RNA
[3] = mismatched dsRNA substrate, read-out: IC50 estimated by in vitro editing assay, RNA:mmRNA
[4] = DNA:RNA mismatched hybrid substrate, read-out: IC50 estimated by in vitro editing assay, DNA:mmRNA

SMILES	IC50 (ADAR1p110; [2]) [µM]	IC50 (ADAR1p110; [3]) [µM]	IC50 (ADAR1p110; [4]) [µM]	viability of MRI90 (normal fibroblast) cells [1]	viability of HeLa (non-ALT) cells (HeLa cells)	also measured
NC(=NOC(=O)c1ccc([N+](=O)[O-])o1)c1ccc(OCc2ccc(Cl)cc2)c(Cl)c1 [Compound #1, [[amino-[3-chloro-4-[(4-chlorophenyl)methoxy]phenyl]methylidene]amino]5-nitrofuran-2-carboxylate]	27	33		very little effects	significantly decreased viability; also recorded: significantly reduced viability	
Cc1cc(C)n(-c2ccc(N3CCSCC3)nn2)n1 [compound 37, 4-[6-(3,5-dimethylpyrazol-1-yl)pyridazin-3-yl]thiomorpholine]		46	3 to 10			IC50 (ADAR1p110; matched dsRNA substrate, adenosine position 2, read-out: IC50 estimated by in vitro editing assay, RNA:RNA, Position 2): 68.5 µM; IC50 (ADAR1p110; matched dsRNA substrate, adenosine positions 3 & 6, read-out: IC50 estimated by in vitro editing assay, RNA:RNA, Position 3 & 6): 3 µM
O=C(Nc1ccccc1)c1sc2ccccc2c1Cl [Compound #13-Analog 1]						inhibitory potency of ADAR1 p110 editing activity (SAR analogs) (ADAR1p110): complete loss of inhibitory potency; also recorded: inactive compound
COc1cc(C2=NNC(=O)CC2)cc(OC)c1OC [compound 40, 3-(3,4,5-trimethoxyphenyl)-4,5-dihydro-1H-pyridazin-6-one]	57.6	27.2				
N#Cc1ccccc1NC(=O)c1sc2ccccc2c1Cl [Compound #13-Analog 2]						inhibitory potency of ADAR1 p110 editing activity (SAR analogs) (ADAR1p110): weaker but retained A-to-I editing inhibitory activity
Cc1cc(C)n2nc(-c3ccccc3)cc2n1 [compound 6, 5,7-dimethyl-2-phenylpyrazolo[1,5-a]pyrimidine]			30 to 76	very little effects	significantly decreased viability; also recorded: significantly reduced viability	viability of U2OS (ALT) cells (U2OS cells): very little effects

Second part, led by results:

IC50 (ADAR1p110; [2]) [µM]	IC50 (ADAR1p110; [3]) [µM]	IC50 (ADAR1p110; [4]) [µM]	SMILES	viability of MRI90 (normal fibroblast) cells [1]	viability of HeLa (non-ALT) cells (HeLa cells)	also measured
66.9			N#Cc1c(-c2ccccc2)cc(SCc2ccc(Cl)cc2)n2c1nc1ccccc12 [compound 23, 1-[(4-chlorophenyl)methylsulfanyl]-3-phenylpyrido[1,2-a]benzimidazole-4-carbonitrile]			IC50 (ADAR1p110; mismatched dsRNA substrate, adenosine position 6, read-out: IC50 estimated by in vitro editing assay, RNA:mmRNA, Position 6): 66.4 µM
		1.5 to 3	CSc1nc(SC)c(C#N)c(-c2ccco2)n1 [compound 52, 4-(furan-2-yl)-2,6-bis(methylsulfanyl)pyrimidine-5-carbonitrile]			inhibition of editing of A:U matched dsRNA (ADAR1p110; matched dsRNA substrate, FIG. 25C, 10 microM test compound): not A:U matched dsRNA; inhibition of editing of A-C mismatched dsRNA (ADAR1p110; mismatched dsRNA substrate, FIG. 25C, 10 microM test compound): inhibited A-C mismatched dsRNA; inhibition of editing of A-C mismatched dsRNA (ADAR1p110; mismatched dsRNA substrate, FIG. 25C, 10 microM test compound, listed as #52): more specific inhibitory effects on adenosine at A-C mismatched base pairs
		5 to 17	CSc1[nH]nc(-c2ccc(Cl)cc2)c1C#N [compound 27, 5-(4-chlorophenyl)-3-methylsulfanyl-1H-pyrazole-4-carbonitrile]	very little effects	significantly decreased viability; also recorded: significantly reduced viability	viability of U2OS (ALT) cells (U2OS cells): very little effects
